Test results reported in paper PMC9421656, “Beyond Retigabine: Design, Synthesis, and Pharmacological Characterization of a Potent and Chemically Stable Neuronal Kv7 Channel Activator with Anticonvulsant Activity” (Journal of Medicinal Chemistry, 2022).

Key:
Kv7.4 channels = molecular target: T1, Kv7.4 channels (Homo sapiens, UniProt P56696); assay: Whole-cell patch-clamp electrophysiology in CHO cells expressing Kv7.4; format: cell-based; settings: 0.1 μM, Kv7.4 currents
T1 construct: expressed in transfected cells; host or cells: CHO cells
Experimental: In order to evaluate the effects of compound 60 on other Kv7 channels, its ability to activate Kv7.4 channels expressed in CHO cells was also investigated. […]. During the recording, constant perfusion of extracellular solution was maintained. The extracellular solution contained (in mM): 138 NaCl, 2 CaCl2, 5.4 KCl, 1 MgCl2, 10 glucose, and 10 HEPES, at pH 7.4, with NaOH. The pipette (intracellular) solution contained (in mM): 140 KCl, 2 MgCl2, 10 EGTA, 10 HEPES, 5 Mg^2+-ATP, at pH 7.3–7.4, with KOH. Current was recorded using an Axopatch-200A amplifier, filtered at 5 kHz, and digitized using a DigiData 1440A (Molecular Devices). The pCLAMP software (version 10.2) was used for data acquisition and analysis (Molecular Devices). To evaluate the activity of each compound on Kv7.2 + Kv7.3 currents, the cells were clamped at −80 mV and conductance–voltage curves (G/V curves; activation curves) were generated by normalizing to the maximal value of the instantaneous isopotential currents at 0 mV and expressing the normalized values as a function of the preceding voltages. Data were fit to a Boltzmann distribution of the following form: y = max/[1 + exp (V1/2 – V)/k], where V is the test potential, V1/2 is the half-activation potential, and k is the slope factor.

in vivo = assay: in vivo
Experimental: The animals were sacrificed after 60 min, and brain and blood were collected.
For the assessment of plasmatic concentration, 20 μL of plasma was treated with 100 μL of methanol in a test tube. The tube was vortexed for 30 s. Then, the sample was centrifuged for 10 min at 14680 rpm, at 4 °C. 90 μL of supernatant was dried under nitrogen, reconstituted in 150 μL of MeOH, and then injected into the UHPLC–MS/MS.
Frozen brain tissues were lyophilized overnight, then weighed, carefully homogenized, and extracted with methanol in a 10 mg:[…] tissue:solvent ratio. The samples were vortexed for 30 s, treated in an ultrasonic bath for 5 min, and then centrifuged for 10 min at 14680 rpm, at 4 °C.
Returning to 40% B in 0.10 min.
The ESI was operated in positive mode.

Question: With `CC(C)(C)CC(=O)Nc1ccc(NCc2ccc(C(F)(F)F)cc2)c(F)c1N` [compound 60, N-(2-Amino-3-fluoro-4-((4-(trifluoromethyl)benzyl)amino)phenyl)-3,3-dimethylbutanamide] as the molecule, how does the Idrug/Icontrol (Kv7.4 channels) read?
Answer: 2.5 ± 0.3

Question: And the ΔV1/2 (Kv7.4 channels)?
Answer: −29.2 ± 4.4 mV

Question: What about the Kp at 1 h (in vivo; male, C57Bl/6, mouse, in vivo, ip, 1 mg/kg) of the same molecule?
Answer: 40.4

Question: What about the concentration at 60 min (in vivo; male, C57Bl/6, mouse, in vivo, ip, 1 mg/kg, Brain concentration) of the same molecule?
Answer: 727000 ± 179000 ng/g

Question: What about the concentration at 60 min (in vivo; male, C57Bl/6, mouse, in vivo, ip, 1 mg/kg, Plasma concentration) of the same molecule?
Answer: 18200 ± 3700 ng/g

Question: What about the “Brain/plasma ratio higher than that of retigabine” value (in vivo; mice, 1 mg/kg i.p., 60 min) of the same molecule?
Answer: 18 times
